In patent US4043993A, “New pentapeptides and methods for their production” (Parke, Davis & Company, priority 1976, dated 1977):
“And” between values parts separate entries of the source, which are not always exact repeats. Equal values may be shown once. No end group written: not given here.

System: LRF (luteinizing hormone release factor) induced luteinizing hormone (LH) release
Experiment: LRF antagonist activity in vitro in rat anterior pituitary cell cultures
Type: cell-based
Source text: Pentapeptides of this invention were screened for LRF antagonist activity in vitro using rat anterior pituitary cell cultures as described by Vale et. al. [Endocrinology, 91, 562 (1972)]. The inhibition of LRF (luteinizing hormone release factor) induced luteinizing hormone (LH) release into the culture medium is the endpoint in this in vitro bioassay.

[1] = Molar Conc. 1×10^-6, LRF Control 2.5×10^-10
[2] = Molar Conc. 1×10^-7, LRF Control 3.5×10^-10
[3] = Molar Conc. 2.5×10^-7, LRF Control 3.5×10^-10
[4] = Molar Conc. 6×10^-7, LRF Control 3.5×10^-10
[5] = Molar Conc. 6×10^-8, LRF Control 3.5×10^-10

Substance | LH Value (LRF alone (LRF Control), Molar Conc. 2.5×10^-10) [ng/mL] | LH Value (LRF alone (LRF Control), Molar Conc. 3.5×10^-10) | % LH Release Inhibition [1] [%] | LH Value [1] [ng/mL] | % LH Release Inhibition [2] [%] | LH Value [2] [ng/mL] | % LH Release Inhibition [3] [%] | LH Value [3] [ng/mL] | % LH Release Inhibition [4] [%] | LH Value [4] [ng/mL] | % LH Release Inhibition [5] [%] | LH Value [5] [ng/mL]
LRF: luteinizing hormone releasing factor, also referred to as luteinizing hormone releasing hormone, or LH-RH; stimulates secretion of luteinizing hormone (QHWSYGLRPG; ends and bridges not checked; UniProt P01148 24-33, looked up) [reference compound] | 38.98 | 33.78 ng/mL and 41.70 ng/mL and 58.17 ng/mL and 42.57 ng/mL | – | – | – | – | – | – | – | – | – | –
N-Benzyloxycarbonyl-D-2-azetidinecarbonyl-N^im -benzyl-L-histidyl-O-benzyl-L-tyrosyl-O-benzyl-L-seryl-D-alanine methyl ester | – | – | 102 | 5.72 | 53 | 33.60 | 78 | 22.34 | 89 | 17.18 | 29 | 44.92
